≈ marks a conversion by molar mass, not a printed value.

Common to all, as to assay: In vitro antifungal activity (IC80), broth micro-dilution
Common to all, as to format: cell-based
A general note: In broth dilution the organism is exposed to a series of concentrations in liquid medium.

In experiment [1] the test system is Absidia corymbifera (CF1001). Conditions: Lichtheimia corymbifera; 80% inhibitory concentration; YNB medium solidified with 0.2% low melting point agarose; 1-2 days at 35° C.; read-out: In vitro antifungal activity (IC80) A. cormybifera (CF1001). How it is done:
(§1) In vitro antifungal activities of 1-(1H-1,2,4-triazol-1-yl)butan-2-ol derivatives of the formula (I) of the present invention were evaluated by determining the 80% inhibitory concentration (IC80), which was calculated as the lowest concentration of an antifungal to inhibit the growth of fungus to 20% turbidity compared with the drug-free control growth spectrophotometrically. The IC80 values were determined by the broth micro-dilution procedure based on NCCLS Approved Standard with the following minor modifications:
(§2) National Committee for Clinical Laboratory Standards. (1997) Reference method for broth dilution antifungal susceptibility testing for yeasts. Approved standard.
(§3) Yeast Nitrogen Base (YNB; Difco Lab.) supplemented with 1% glucose and 0.25% K2HPO4 was used as testing medium for yeast, the same medium solidified with 0.2% low melting point agarose (BRL) was used for filamentous fungi. Inoculum size was 1-3×10^4 cells/ml, and incubation was performed for 1-2 days at 35° C.
(§4) The inhibitory activity of 1-(1H-1,2,4-triazol-1-yl)butan-2-ol derivatives of the formula (I) against in vitro growth of Candida albicans, Aspergillus fumigatus, Rhizopus oryzea, and Absidia corymbifera is summarized in Table 1 comparing with 2-(2,4-difluorophenyl)-1,3-bis(1H-1,2,4-triazol-1-ylmethyl)propan-2-ol (Fluconazole; Pfizer).

The test system of experiment [2] is Aspergillus fumigatus (437). Conditions: 80% inhibitory concentration, YNB medium solidified with 0.2% low melting point agarose, 1-2 days at 35° C. How it is done: as §1, §2, §3, §4
The test system of experiment [3] is Candida albicans (CY1002). Particulars: 80% inhibitory concentration, YNB medium with 1% glucose and 0.25% K2HPO4, 1-2 days at 35° C. How it is done: as §1, §2, §3, §4
The test system of experiment [4] is Rhizopus oryzea (CFF1118). Particulars: 80% inhibitory concentration, YNB medium solidified with 0.2% low melting point agarose, 1-2 days at 35° C., read-out: In vitro antifungal activity (IC80) R. oryzea (CFF1118). How it is done: as §1, §2, §3, §4

For orientation: IC80 means the concentration at which the effect reaches the 80% level. Consider `CCc1csc(-c2ccc(-c3csc([C@H](C)[C@](O)(Cn4cncn4)c4ccc(F)cc4F)n3)cc2)n1` [Example 7, (2R,3R)-2-(2,4-Difluorophenyl)-3-{4-[4-(4-ethylthiazol-2-yl)phenyl]thiazol-2-yl}-1-(1H-1,2,4-triazol-1-yl)butan-2-ol], for which the IC80 was found to be 0.34 µg/mL (≈ 0.649 µM) in experiment [1], 0.39 µg/mL (≈ 0.745 µM) in experiment [2], 0.024 µg/mL (≈ 0.0458 µM) in experiment [3] and 0.069 µg/mL (≈ 0.132 µM) in experiment [4].

In the case of `Cc1nc(-c2ccc(-c3csc([C@H](C)[C@](O)(Cn4cncn4)c4ccc(F)cc4F)n3)cc2)ns1` [Example 18, (2R,3R)-2-(2,4-Difluorophenyl)-3-(4-{4-[5-methyl-(1,2,4-thiadiazol-3-yl)]phenyl}thiazol-2-yl)-1-(1H-1,2,4-triazol-1-yl)butan-2-ol], the IC80 in experiment [1] was found to be 0.19 µg/mL (≈ 0.372 µM); in experiment [2], 0.28 µg/mL (≈ 0.548 µM); in experiment [3], 0.0031 µg/mL (≈ 0.00607 µM); in experiment [4] it was 0.046 µg/mL (≈ 0.0901 µM).

`C[C@@H](c1nc(-c2ccc(-c3csnn3)cc2)ns1)[C@](O)(Cn1cncn1)c1cc(F)ccc1F` [Example 2, (2R,3R)-2-(2,5-Difluorophenyl)-3-{3-[4-(1,2,3-thiadiazol-4-yl)phenyl]-1,2,4-thiadiazol-5-yl}-1-(1H-1,2,4-triazol-1-yl)butan-2-ol]: the IC80 amounted to 0.047 µg/mL (≈ 0.0945 µM) in experiment [1], 0.036 µg/mL (≈ 0.0724 µM) in experiment [2], 0.0014 µg/mL (≈ 0.00281 µM) in experiment [3] and 0.011 µg/mL (≈ 0.0221 µM) in experiment [4].

As to `CCOC(=O)c1csc(-c2ccc(-c3csc([C@H](C)[C@](O)(Cn4cncn4)c4ccc(F)cc4F)n3)cc2)n1` [Example 9, 2-(4-{2-[(1R,2R)-2-(2,4-Difluorophenyl)-2-hydroxy-1-methyl-3-(1H-1,2,4-triazol-1-yl)propyl]thiazol-4-yl}phenyl)thiazole-4-carboxylic acid ethyl ester], the IC80 in experiment [1] amounted to 0.17 µg/mL (≈ 0.299 µM); in experiment [2], 0.5 µg/mL (≈ 0.881 µM); in experiment [3], 0.022 µg/mL (≈ 0.0388 µM); in experiment [4] it was 0.036 µg/mL (≈ 0.0634 µM).

Regarding `C[C@@H](c1nc(-c2ccc(-c3nccs3)cc2)cs1)[C@](O)(Cn1cncn1)c1ccc(F)cc1F` [Example 5, (2R,3R)-2-(2,4-Difluorophenyl)-3-{4-[4-(thiazol-2-yl)phenyl]thiazol-2-yl}-1-(1H-1,2,4-triazol-1-yl)butan-2-ol], the IC80 amounted to 0.3 µg/mL (≈ 0.605 µM) in experiment [1], 0.35 µg/mL (≈ 0.706 µM) in experiment [2], 0.0059 µg/mL (≈ 0.0119 µM) in experiment [3] and 0.0047 µg/mL (≈ 0.00948 µM) in experiment [4].

`C[C@@H](c1nc(-c2ccc(-c3csnn3)cc2)cs1)[C@](O)(Cn1cncn1)c1ccc(F)cc1F` [Example 3, (2R,3R)-2-(2,4-Difluorophenyl)-3-{4-[4-(1,2,3-thiadiazol-4-yl)phenyl]thiazol-2-yl}-1-(1H-1,2,4-triazol-1-yl)butan-2-ol]: the IC80 was found to be 0.024 µg/mL (≈ 0.0483 µM) in experiment [1], 0.14 µg/mL (≈ 0.282 µM) in experiment [2], 0.011 µg/mL (≈ 0.0222 µM) in experiment [3] and 0.0029 µg/mL (≈ 0.00584 µM) in experiment [4].

Turning to `Cc1csc(-c2ccc(-c3csc([C@H](C)[C@](O)(Cn4cncn4)c4ccc(F)cc4F)n3)cc2)n1` [Example 6, (2R,3R)-2-(2,4-Difluorophenyl)-3-{4-[4-(4-methylthiazol-2-yl)phenyl]thiazol-2-yl}-1-(1H-1,2,4-triazol-1-yl)butan-2-ol], the IC80 in experiment [1] came out at 0.33 µg/mL (≈ 0.648 µM); in experiment [2] it was 0.67 µg/mL (≈ 1.31 µM); in experiment [3], 0.021 µg/mL (≈ 0.0412 µM); in experiment [4], 0.095 µg/mL (≈ 0.186 µM).

For the compound `C[C@@H](c1nc(-c2ccc(-c3csnn3)cc2)cs1)[C@](O)(Cn1cncn1)c1cc(F)ccc1F` [Example 4, (2R,3R)-2-(2,5-Difluorophenyl)-3-{4-[4-(1,2,3-thiadiazol-4-yl)phenyl]thiazol-2-yl}-1-(1H-1,2,4-triazol-1-yl)butan-2-ol], the 80% effect concentration (IC80) was 0.017 µg/mL (≈ 0.0342 µM) in experiment [1], 0.17 µg/mL (≈ 0.342 µM) in experiment [2], 0.011 µg/mL (≈ 0.0222 µM) in experiment [3] and 0.0028 µg/mL (≈ 0.00564 µM) in experiment [4].

With `C[C@@H](c1nc(-c2ccc(-c3csnn3)cc2)ns1)[C@](O)(Cn1cncn1)c1ccc(F)cc1F` [Example 1, (2R,3R)-2-(2,4-Difluorophenyl)-3-{3-[4-(1,2,3-thiadiazol-4-yl)phenyl]-1,2,4-thiadiazol-5-yl}-1-(1H-1,2,4-triazol-1-yl)butan-2-ol], the IC80 in experiment [1] turned out to be 0.0057 µg/mL (≈ 0.0115 µM); in experiment [2] it was 0.11 µg/mL (≈ 0.221 µM); in experiment [3], 0.00093 µg/mL (≈ 0.00187 µM); in experiment [4] it was 0.0023 µg/mL (≈ 0.00462 µM).

`CCc1nc(-c2ccc(-c3csc([C@H](C)[C@](O)(Cn4cncn4)c4ccc(F)cc4F)n3)cc2)ns1` [Example 19, (2R,3R)-2-(2,4-Difluorophenyl)-3-(4-{4-[5-ethyl-(1,2,4-thiadiazol-3-yl) ]phenyl}thiazol-2-yl)-1-(1H-1,2,4-triazol-1-yl)butan-2-ol]: the IC80 in experiment [1] turned out to be 0.25 µg/mL (≈ 0.477 µM); in experiment [2], 0.3 µg/mL (≈ 0.572 µM); in experiment [3], 0.016 µg/mL (≈ 0.0305 µM); in experiment [4], 0.044 µg/mL (≈ 0.0839 µM).

The values are drawn from US20010047017A1, “Azole derivatives” (priority 2000, published 2001).
